In article PMC7904827 (Scientific Reports, 2021):

Assays:
[1] = 100 µM, same conditions, compared with GK-667; cited from earlier work
[2] = test system: neonatal ventricular cardiomyocytes (NVCMs); assay: In vitro cardioprotection bioassay against daunorubicin toxicity (LDH release); assay type: cell-based, rat; conditions: 3 h preincubation, DAU 1.2 µM, LDH release after 48 h
Method: NVCMs were isolated in-house from 1- to 3-day-old Wistar rats as described previously. The use of animals and experimental protocols were approved by Charles University, Faculty of Pharmacy Animal Welfare Committee. All experiments were performed in accordance with Directive 2010/63/EU on the Protection of Animals Used for Scientific Purposes and in compliance with Animal Research: Reporting of In Vivo Experiments (ARRIVE) guidelines. Newly isolated cardiomyocytes were left for 40 h to form a monolayer of spontaneously beating cardiomyocytes in seeding medium (DMEM/F12 supplemented with 10% HS, 5% FBS, 4% PYR and 1% P/S), which was then replaced with culture medium (DMEM/F12 supplemented with 5% FBS, 4% PYR and 1% P/S). The medium was replaced again after 24 h for new culture medium.
After 3 h, DAU solution (1.2 µM) was added to the media. After another 3 h, the medium was replaced with new (drug-free) exposure medium, and the cardiomyocytes were then kept until the end of the experiment. In addition to cytoprotective properties, the toxicity of the studied agent was also examined; this experiment was performed as described above with only the DAU addition step omitted.
Forty-five hours after the last medium exchange, a sample of medium was taken from each well to assess lactate dehydrogenase (LDH) activity[27]–[29]. For details, see the Supplementary material.
1.5 LDH activity evaluation
The control wells were treated with lysis buffer (0.1 M potassium phosphate, 1% Triton
X-100, 1 mM DTT, 2 mM EDTA; pH 7.8; 15 min; room temperature) to measure the total
cellular LDH level (sum of the activity in the control medium and the lysate). The activity of
LDH was assayed in Tris-HCl buffer (pH 8.9) containing 35 mM sodium lactate and 5 mM
NAD+. The rate of NAD+ reduction was monitored spectrophotometrically at 340 nm for 2 min.
The slope of the linear region and molar absorption coefficient e = 6.22*10 3 M/cm were used
to calculate the LDH activity, and the data were expressed as a percentage of total L DH activity. […]

[3] = test system: topoisomerase IIβ (TOP2B); conditions: compared with DEX; cited from earlier work

**Q.** For `CC(C)COC(=O)OCN1C(=O)CN(CCN2CC(=O)N(COC(=O)OCC(C)C)C(=O)C2)CC1=O` [sobuzoxane], which “decomposition in DMEM” value [1] is on record?
**A.** much slower

**Q.** Which results are given for ICRF-193 [reference compound]?
**A.** lowest concentration with significant protection against DAU-induced toxicity [2]: 0.3 µM; potency in the TOP2B inhibitory assay [3]: markedly higher potency
